In US20080262097A1, “Formulations” (priority 2005, published 2008) one finds DDA and MIC data, which are given here for two compounds.

The test system of experiment [1] is P. granulosum PRP-044. Put plainly: Disc diffusion assay (DDA). Type of experiment: cell-based. The conditions noted are these: zone diameter, 200 μg per disc. The protocol:
(§1) The Propionibacterium spp organisms were cultured and maintained on Wilkins-Chalgren Anaerobe Medium (agar and broth) at pH 6.0; cultures were incubated anaerobically at 37° C. for 72 hours.
(§2) A sterile paper disc was impregnated with a sample of the test compound and a minimum of 30 minutes allowed for the solvents to evaporate as far as possible. The disc was then placed on an agar plate onto which the test micro-organism had been inoculated. The plate was then incubated under the conditions described above, following which it was examined visually for signs of bacterial growth. If the test compound had antimicrobial activity, a circular zone of no growth would be obtained around the disc. The diameter of this zone of “inhibition” was measured using a ProtoCOL™ automated zone sizer (Synbiosis, Cambridge, UK). In general, a greater diameter and/or area of the zone of inhibition indicates a greater antimicrobial activity in the relevant test compound, although other factors such as test compound mobility through the agar gel may also influence the result.
(§3) The area of the zone of inhibition was calculated from the measured zone diameter (D) using the formula π(D/2)^2.

For experiment [2], the system named is P. avidum ATCC 25577. Briefly: Disc diffusion assay (DDA). Type of experiment: cell-based. The conditions noted are these: zone diameter, 200 μg per disc. On the procedure: as §1, §2, §3
Experiment [3] relates to P. granulosum PRP-055. Put plainly: Disc diffusion assay (DDA). The conditions noted are these: zone diameter, 200 μg per disc. The experiment is classed as cell-based. On the procedure:
as §1, §2, §3

Experiment [4] deals with P. granulosum PRP-005. Briefly: Disc diffusion assay (DDA). Type of experiment: cell-based. The conditions noted are these: zone diameter, 200 μg per disc. On the procedure:
as §1, §2, §3

Experiment [5] concerns P. granulosum PRP-043. Put plainly: Disc diffusion assay (DDA). Type of experiment: cell-based. The conditions noted are these: zone diameter, 200 μg per disc. On the procedure: as §1, §2, §3
The subject of experiment [6] is P. granulosum NCTC 11865. Put plainly: Disc diffusion assay (DDA). Type of experiment: cell-based. The conditions noted are these: zone diameter, 200 μg per disc. The protocol:
as §1, §2, §3

Experiment [7] deals with S. aureus CPHL GISA HO41340156. Briefly: MIC assay. Type of experiment: cell-based. The conditions noted are these: Staphylococcus aureus. On the procedure: (§4) The staphylococci and enterococci were cultured and maintained on Mueller-Hinton Medium (agar and broth) at pH 7.2; they were incubated aerobically at 37° C. for 24 hours.
(§5) This is a standard international method for quantitatively assessing the antimicrobial activity of a compound in a liquid medium. The method used a 96-well microtitre plate, capable of holding about 200 μl of liquid per well. […] The culture media were as described above for the relevant test organisms.
(§6) The wells were inoculated with a liquid suspension of freshly grown micro-organism and incubated under the conditions described above. After incubation, the microtitre plate was examined visually (with the aid of a light box) for cell pellets in and/or opaque wells, which would indicate microbial growth. The MIC value was recorded as the lowest concentration of test compound required to inhibit microbial growth, ie, the lowest concentration for which the liquid in the well remained clear.
(§7) The assays were conducted in duplicate and included both negative (culture medium only) and positive (culture medium, diluting solvent and inoculum) controls.

For experiment [8], the system named is S. aureus ATCC 12601. Put plainly: MIC assay. The experiment is classed as cell-based. The conditions noted are these: Staphylococcus aureus, ATCC12601. On the procedure: as §4, §5, §6, §7
Experiment [9] has as its system Staphylococcus hominis ATCC 27844. Briefly: MIC assay. The conditions noted are these: ATCC27844. Type of experiment: cell-based. The protocol:
as §4, §5, §6, §7

Experiment [10] has as its system Staphylococcus warneri ATCC 27836. Put plainly: MIC assay. The experiment is classed as cell-based. The conditions noted are these: ATCC27836. The protocol: as §4, §5, §6, §7
Experiment [11] relates to Staphylococcus haemolyticus ATCC 29970. Put plainly: MIC assay. Type of experiment: cell-based. The conditions noted are these: ATCC29970. On the procedure:
as §4, §5, §6, §7

For experiment [12], the system named is Staphylococcus cohnii ATCC 29974. Briefly: MIC assay. The experiment is classed as cell-based. The conditions noted are these: ATCC29974. On the procedure: as §4, §5, §6, §7
For experiment [13], the system named is S. aureus CPHL VISA Mu50. Put plainly: MIC assay. The experiment is classed as cell-based. The conditions noted are these: Staphylococcus aureus. On the procedure:
as §4, §5, §6, §7

Experiment [14] has as its system S. aureus ATCC 12600-U. Briefly: MIC assay. The conditions noted are these: Staphylococcus aureus, ATCC12600. The experiment is classed as cell-based. On the procedure:
as §4, §5, §6, §7

The test system of experiment [15] is Staphylococcus aureus ATCC 12600. Put plainly: MIC assay. Type of experiment: cell-based. The conditions noted are these: ATCC12600. On the procedure: as §4, §5, §6, §7
Experiment [16] has as its system S. aureus ATCC 25923. Briefly: MIC assay. Type of experiment: cell-based. The conditions noted are these: Staphylococcus aureus, ATCC25923. On the procedure: as §4, §5, §6, §7
Experiment [17] has as its system Staphylococcus capitis ATCC 27840. Briefly: MIC assay. Type of experiment: cell-based. The conditions noted are these: ATCC27840. The protocol:
as §4, §5, §6, §7

In experiment [18] the test system is S. epidermidis (NCTC 11047). Briefly: MIC assay. Type of experiment: cell-based. The conditions noted are these: Staphylococcus epidermidis, NCTC11047. The protocol:
as §4, §5, §6, §7

The subject of experiment [19] is Staphylococcus auricularis ATCC 33753. Put plainly: MIC assay. The experiment is classed as cell-based. The conditions noted are these: ATCC33753. The protocol: as §4, §5, §6, §7
For experiment [20], the system named is S. aureus ATCC 12607. Briefly: MIC assay. The experiment is classed as cell-based. The conditions noted are these: Staphylococcus aureus, ATCC12607. On the procedure:
as §4, §5, §6, §7

Experiment [21] concerns S. saprophyticus NCTC 7292. Briefly: MIC assay. Type of experiment: cell-based. The conditions noted are these: Staphylococcus saprophyticus, NCTC7292. On the procedure:
as §4, §5, §6, §7

Experiment [22] concerns P. acnes PRP-053. Briefly: MIC assay. The experiment is classed as cell-based, Propionibacterium acnes. The conditions noted are these: Cutibacterium acnes, PRP053; P. acnes PRP-053 (resistance Tet/MLS). The protocol: (§8) Other propionibacterial strains were also tested, as described in Example 8 below. These included certain antibiotic resistant propionibacteria, such as the two P. acnes strains PRP-010 and PRP-053 which are resistant respectively to macrolides-lincosamides-streptogramins-ketolides (MLSK) and to macrolides-lincosamides-streptogramins (MLS) and tetracycline—in other words, PRP-010 is resistant to erythromycin and clindamycin, and […] to erythromycin, clindamycin and tetracycline.
as §1, §5, §6, §7

In experiment [23] the test system is P. acnes PRP-010. Put plainly: MIC assay. The experiment is classed as cell-based, Propionibacterium acnes. The conditions noted are these: Cutibacterium acnes, PRP010; P. acnes PRP-010 (resistance MLSK). On the procedure:
as §8, §1, §5, §6, §7

Values after ≈ are worked out from the molar mass of the structure shown. Where two headings read alike, the source gives them in different places.

Take `O=C(OOC(=O)c1ccccc1)c1ccccc1` [benzoyl peroxide]: the DDA in experiment [1] is 29.31 (±0.54) mm; in [2] it was 25.83 (±0.95) mm; in experiment [3], 21.51 (±0.47) mm; in experiment [4], 22.95 (±0.64) mm; in experiment [5], 22.48 (±1.19) mm; in [6] it was 24.19 (±0.94) mm. The MIC in experiment [7] was 125 µg/mL (≈ 516 µM); in [8] (S. aureus ATCC 12601, read-out: MIC), 250 µg/mL (≈ 1030 µM); in experiment [9] (Staphylococcus hominis ATCC 27844, read-out: MIC) it was 250 µg/mL (≈ 1030 µM); in experiment [10] (Staphylococcus warneri ATCC 27836, read-out: MIC) it was over 250 µg/mL; in experiment [11] (Staphylococcus haemolyticus ATCC 29970, read-out: MIC), 250 µg/mL (≈ 1030 µM); in [12], 62.5 µg/mL (≈ 258 µM). Further, the MIC was determined as 125 µg/mL (≈ 516 µM) in experiment [13]; 250 µg/mL (≈ 1030 µM) in experiment [14] (S. aureus ATCC 12600-U, read-out: MIC); 125 µg/mL (≈ 516 µM) in experiment [15]; 250 µg/mL (≈ 1030 µM) in experiment [16] (S. aureus ATCC 25923, read-out: MIC); 250 µg/mL (≈ 1030 µM) in experiment [17] (Staphylococcus capitis ATCC 27840, read-out: MIC); 250 µg/mL (≈ 1030 µM) in experiment [18] (S. epidermidis NCTC 11047, read-out: MIC). The MIC came to 15.6 µg/mL (≈ 64.4 µM) in [19] (Staphylococcus auricularis); 250 µg/mL (≈ 1030 µM) in [20] (S. aureus ATCC 12607, read-out: MIC); 250 µg/mL (≈ 1030 µM) in experiment [21] (S. saprophyticus NCTC 7292, read-out: MIC); 31.2 µg/mL (≈ 129 µM) in [22]; 31.2 µg/mL (≈ 129 µM) in [23].
For the compound `CC(C)(C)c1cc(O)ccc1O` [TBHQ, t-butyl hydroquinone], the DDA in [1] is on record as 10.70 (±0.65) mm; in experiment [2], 9.16 (±0.48) mm; in [3] it was 13.07 (±0.78) mm; in experiment [4], 0.00 (±0.00) mm; in experiment [5] it was 10.56 (±0.48) mm; in experiment [6], 11.00 (±0.00) mm. The MIC in [7] worked out at 7.8 µg/mL (≈ 46.9 µM); in experiment [8], 7.8 µg/mL (≈ 46.9 µM); in experiment [9] (Staphylococcus hominis), 1.95 µg/mL (≈ 11.7 µM); in [10] (Staphylococcus warneri) it was 3.9 µg/mL (≈ 23.5 µM); in [11] (Staphylococcus haemolyticus) it was 3.9 µg/mL (≈ 23.5 µM); in experiment [12] it was 3.9 µg/mL (≈ 23.5 µM). The MIC is 3.9 µg/mL (≈ 23.5 µM) in experiment [13]; 3.9 µg/mL (≈ 23.5 µM) in experiment [14]; 3.9 µg/mL (≈ 23.5 µM) in experiment [15]; 7.8 µg/mL (≈ 46.9 µM) in [16]; 1.95 to 3.9 µg/mL (≈ 11.7 to 23.5 µM) in [17] (Staphylococcus capitis); 3.9 µg/mL (≈ 23.5 µM) in experiment [18]. For the same compound, the MIC was 0.98 µg/mL (≈ 5.9 µM) in [19] (Staphylococcus auricularis ATCC 33753, read-out: MIC); 3.9 µg/mL (≈ 23.5 µM) in experiment [20]; 3.9 µg/mL (≈ 23.5 µM) in experiment [21]; 3.9 µg/mL (≈ 23.5 µM) in experiment [22]; 3.9 µg/mL (≈ 23.5 µM) in [23].
